Read-outs that look alike come from different tables or passages of the source. Where only a bound is given, the exact number is not on record here.

Data set [1] is described as follows: Concentration of ofloxacin in periodontal fluid in the pockets after local administration. The class given is in vivo, volunteers. As to the method: The preparations of Example 3 containing ofloxacin to be inserted into the periodontal pockets were locally administered to the pockets of volunteers and the concentration of ofloxacin in the periodontal fluid in the pockets was determined and compared with that in saliva obtained by oral administration thereof. In the test, the preparations of Example 3 having a thickness of 0.3 mm and width of 1 mm was cut into strips having a length of 4 mm (each containing 0.06 mg of ofloxacin). The strip was inserted into a periodontal pocket of each volunteer. The probing depth of the pocket was 5 mm. After a given time, a filter paper having a width of 1 mm was inserted into the pocket to take the periodontal fluid out of the pocket. The amount of ofloxacin in the periodontal fluid was determined from the diameter of an inhibition circle according to an agar plate diffusion method with E. coli K 12. The quantity of the periodontal fluid thus taken out was determined from a calibration curve prepared from the quantity of a previously prepared liquid sample and the wetted area of the filter paper. The concentration of ofloxacin was thus determined. The time profile of the concentration of ofloxacin in saliva in the oral administration was taken from a report of Morihana et al. (Chemotherapy, 32: Sl, 1070, 1984).

The subject of the next data set is dogs. Conditions: cited from earlier work.
The subject of the next data set is monkeys. Conditions: cited from earlier work.
The conditions of data set [2]: cited from earlier work; for average concentration of ofloxacin in saliva: oral, 200 mg/body, 8 subjects.

With `CC1COc2c(N3CCN(C)CC3)c(F)cc3c(=O)c(C(=O)O)cn1c23` (stereo not drawn) [ofloxacin, 9-fluoro-2,3-dihydro-3-methyl-10-(4-methyl-1-piperazinyl)-7-oxo-7H-pyrido[1,2,3-de][1,4]benzoxazine-6-carboxylic acid], the “time for which concentration in the pocket was maintained above 70 μg/ml” value in data set [1] (0.06 mg inserted into the periodontal pocket) is greater than 5 h. In data set [1] (human, periodontal fluid, 0.06 mg inserted into the periodontal pocket, for longer than 5 h, read-out: concentration in the pocket maintained), the concentration at 5 h is greater than 70 µg/mL. The concentration at 24 h in data set [1] (human, periodontal fluid, 0.06 mg/pocket, 24 h, 8 pockets of 4 subjects) is 16.6 µg/mL. Further, the “Acute toxicity (LD50 in oral administration)” value in the data set with dogs is on record as no less than 200 mg/kg; in the data set with monkeys, 500 to 1,000 mg/kg. The “maximum concentration in saliva” value in data set [2] (oral administration of 200 mg, in 3 hours) was 1.8 µg/mL. The “time of maximum concentration in saliva” value in data set [2] (oral administration of 200 mg) was 3 h. Further, the “average concentration of ofloxacin in saliva” value in data set [2] (1 h) was 1.18 µg/mL; in data set [2] (2 h) it was 1.59 µg/mL; in data set [2] (3 h), 1.80 µg/mL; in data set [2] (4 h), 1.65 µg/mL; in data set [2] (5 h), 1.40 µg/mL.

Values taken from patent US4965262A, “Method for treating or preventing locally periodontal disease” (Rohto Pharmaceutical Co., Ltd., priority 1987, dated 1990).
